Measurements as given in patent US20110039795A1, “2'-O,3'-N-BRIDGED MACROLIDES” (priority 2008, published 2011).

System: CD1 mice
Experiment: Phorbol 12-myristate 13-acetate induced ear edema in CD1 mice
Format: in vivo
Details: Mus musculus, topical, 6 h; applied topically once in a dose 500 μg/ear; PMA induced ear edema
Method: Phorbol 12-Myristate 13-Acetate Induced Ear Edema in CD1 Mice
Male CD1 mice (Charles River, France) weighing 30-40 g are randomly grouped (n=8 in test group of which the untreated ear serves as negative control; 8 in positive control group which also serves as their own negative control group). Test compounds, as well as vehicle (Trans-phase Delivery system, containing benzyl alcohol 10%, acetone 40% and isopropanol 50%) (all from Kemika, Croatia), are administered topically to the internal surface of the left ear 30 minutes prior to administration of phorbol 12-myristate 13-acetate (PMA) (Sigma, USA). Test compounds are administered at a dose 500 μg in 15 μL per ear. 30 minutes later, 0.01% PMA solution in acetone is applied topically to the inner surface of the left ear of each animal in a volume of 12 μL per ear. During the treatment and challenge, animals are anesthetized with anesthesia by inhalation. 6 h following challenge, animals are euthanized by intraperitoneal thiopental injection (PLIVA, Croatia). For assessing the auricular edema, 8 mm discs are cut out of left and right auricular pinna and weighed. The degree of edema is calculated by subtracting the weight of 8 mm disc of the untreated ear from that of the treated contralateral ear. The inhibition of edema in the treated animals is expressed as percentage compared to control mice.

| SMILES | inhibition in vivo at 500 µg/ear [%] |
| --- | --- |
| CC[C@H]1OC(=O)[C@H](C)[C@@H](O[C@H]2C[C@@](C)(OC)[C@@H](O)[C@H](C)O2)[C@H](C)[C@@H](O[C@@H]2O[C@H](C)C[C@H]3[C@H]2OC(=NC(C)C)N3C)[C@](C)(OC)C[C@@H](C)C(=O)[C@H](C)[C@@H](O)[C@]1(C)O (single isomer, unassigned) [Example 11, 2′-O,3′-N-(Carbonimidoyl)-3′-N-demethyl-N′-isopropyl-6-O-methyl-erythromycin A] | > 50 |
| CC[C@H]1OC(=O)[C@H](C)[C@@H](O[C@H]2C[C@@](C)(OC)[C@@H](O)[C@H](C)O2)[C@H](C)[C@@H](O[C@@H]2O[C@H](C)C[C@H]3[C@H]2OC(=NC)N3C)[C@](C)(OC)C[C@@H](C)C(=O)[C@H](C)[C@@H](O)[C@]1(C)O (single isomer, unassigned) [Example 13, 2′-O,3′-N-(Carbonimidoyl)-3′-N-demethyl-N′-methyl-6-O-methyl-erythromycin A] | > 50 |
| CC[C@H]1OC(=O)[C@H](C)[C@@H](O[C@H]2C[C@@](C)(OC)[C@@H](O)[C@H](C)O2)[C@H](C)[C@@H](O[C@@H]2O[C@H](C)C[C@H]3[C@H]2OC(=Nc2cccc4ccccc24)N3C)[C@](C)(O)C[C@@H](C)CN(C)[C@H](C)[C@@H](O)[C@]1(C)O (single isomer, unassigned) [Example 2, 2′-O,3′-N-(Carbonimidoyl)-3′-N-demethyl-9-deoxo-9a-methyl-N′-(1-naphthyl)-9a-aza-9a-homoerythromycin A] | > 50 |
| CC[C@H]1OC(=O)[C@H](C)[C@@H](O[C@H]2C[C@@](C)(OC)[C@@H](O)[C@H](C)O2)[C@H](C)[C@@H](O[C@@H]2O[C@H](C)C[C@H]3[C@H]2OC(=NCCCN(CC)CC)N3C)[C@](C)(OC)C[C@@H](C)C(=O)N[C@H](C)[C@@H](O)[C@]1(C)O (single isomer, unassigned) [Example 8, 2′-O,3′-N-(Carbonimidoyl)-3′-N-demethyl-N′-[3-(diethylamino)propyl]-6-O-methyl-9a-aza-9a-homoerythromycin A] | > 50 |
| CC[C@H]1OC(=O)[C@H](C)[C@@H](O[C@H]2C[C@@](C)(OC)[C@@H](O)[C@H](C)O2)[C@H](C)[C@@H](O[C@@H]2O[C@H](C)C[C@H]3[C@H]2OC(=NC(C)C)N3C)[C@](C)(O)C[C@@H](C)CN(C)[C@H](C)[C@@H](O)[C@]1(C)O (single isomer, unassigned) [Example 3, 2′-O,3′-N-(Carbonimidoyl)-3′-N-demethyl-9-deoxo-N′-isopropyl-9a-methyl-9a-aza-9a-homoerythromycin A] | > 50 |
| CCN=C1O[C@H]2[C@H](O[C@@H]3[C@@H](C)[C@H](O[C@H]4C[C@@](C)(OC)[C@@H](O)[C@H](C)O4)[C@@H](C)C(=O)O[C@H](CC)[C@@](C)(O)[C@H](O)[C@@H](C)C(=O)[C@H](C)C[C@@]3(C)OC)O[C@H](C)C[C@@H]2N1C (single isomer, unassigned) [Example 14, 2′-O,3′-N-(Carbonimidoyl)-3′-N-demethyl-N′-ethyl-6-O-methyl-erythromycin A] | > 50 |
| CCN=C1O[C@H]2[C@H](O[C@@H]3[C@@H](C)[C@H](O[C@H]4C[C@@](C)(OC)[C@@H](O)[C@H](C)O4)[C@@H](C)C(=O)O[C@H](CC)[C@@](C)(O)[C@H](O)[C@@H](C)NC(=O)[C@H](C)C[C@@]3(C)OC)O[C@H](C)C[C@@H]2N1C (single isomer, unassigned) [Example 15, 2′-O,3′-N-(Carbonimidoyl)-3′-N-demethyl-N′-ethyl-6-O-methyl-9a-aza-9a-homoerythromycin A] | > 50 |
| CC[C@H]1OC(=O)[C@H](C)[C@@H](O[C@H]2C[C@@](C)(OC)[C@@H](O)[C@H](C)O2)[C@H](C)[C@@H](O[C@@H]2O[C@H](C)C[C@H]3[C@H]2O/C(=N/CCCN(CC)CC)N3C)[C@](C)(OC)C[C@@H](C)C(=O)[C@H](C)[C@@H](O)[C@]1(C)O (single isomer, unassigned) [Example 12, 2′-O,3′-N-(Carbonimidoyl)-3′-N-demethyl-N′-[3-(diethylamino)propyl]-6-O-methyl-erythromycin A] | > 50 |
| CC[C@H]1OC(=O)[C@H](C)[C@@H](O[C@H]2C[C@@](C)(OC)[C@@H](O)[C@H](C)O2)[C@H](C)[C@@H](O[C@@H]2O[C@H](C)C[C@H]3[C@H]2OC(=NCc2ccccc2)N3C)[C@](C)(O)C[C@@H](C)CN(C)[C@H](C)[C@@H](O)[C@]1(C)O (single isomer, unassigned) [Example 1, N′-Benzyl-2′-O,3′-N-(carbonimidoyl)-3′-N-demethyl-9-deoxo-9a-methyl-9a-aza-9a-homoerythromycin A] | > 50 |
| CC[C@H]1OC(=O)[C@H](C)[C@@H](O[C@H]2C[C@@](C)(OC)[C@@H](O)[C@H](C)O2)[C@H](C)[C@@H](O[C@@H]2O[C@H](C)C[C@H]3[C@H]2OC(=NC(C)C)N3C)[C@](C)(OC)C[C@@H](C)C(=O)N[C@H](C)[C@@H](O)[C@]1(C)O (single isomer, unassigned) [Example 7, 2′-O,3′-N-(Carbonimidoyl)-3′-N-demethyl-N′-isopropyl-6-O-methyl-9a-aza-9a-homoerythromycin A] | > 50 |
